In paper PMC12415213, “A genome-scale drug discovery pipeline uncovers therapeutic targets and a unique p97 allosteric binding site in Schistosoma mansoni” (Proceedings of the National Academy of Sciences of the …, 2025):
“Also recorded” adds a separate entry of the source. Read-outs that look alike come from different tables or passages of the source.

Tests used:
[1] = target: S. mansoni p97 (Smp_018240) (Schistosoma mansoni, UniProt G4M0P7); format: biochemical
Procedure: (§1) Evaluation of p97’s ATPase activity and compound potency
(§2) For manual ATP consumption assays, 1 µM p97 was incubated with 1% DMSO or inhibitor (1% DMSO final) in assay buffer [50 mM Tris (pH 7.5), 20 mM MgCl2, 1 mM EDTA, 0.5 mM tris(2-carboxyethyl)phosphine (TCEP)] for 5 minutes prior to the addition of 20 µM ATP in a 384-well plate for a total reaction volume of 10 µL, and a final concentration of 500nM enzyme and 10 µM ATP. The reaction was allowed to proceed for 50 minutes at room temperature before adding equivalent volume of Kinase-Glo Plus reagent (Promega), and a further incubation of 10 minutes in the dark. Luminescence was read using a BioTek Synergy 2 plate reader […]
1 μM, 500 nM, 100 nM, 50 nM, 10 nM, 5 nM, 1 nM, and 0 nM) in triplicate, maintaining a concentration of 1% […]
were calculated using GraphPad Prism. […]

[2] = test system: S. mansoni vcp/p97 (Smp_018240); test: High-throughput screen of S. mansoni p97 (Kinase-Glo, single concentration); format: biochemical, Schistosoma mansoni; settings: for Screen Inhibition (%): 10 μM compound, normalized to CB-5083 control; for inhibition of S. mansoni p97 function in the screen: high-throughput screen, 10 μM
Procedure: as §1
as §2, with “dark.” for “dark. Luminescence was read using a BioTek Synergy 2 plate reader”
High-throughput screening (HTS) assay
Kinase-Glo (Promega, part K1214) was purchased from Promega. Microtiter plates (384 wells) were purchased from Perkin Elmer. All chemicals included in the UTSW library were sourced from commercial sources […]
TimTec (500)] or UT Southwestern chemists (https://www.utsouthwestern.edu/research/core-facilities/high- […]
throughput-screening/libraries/). […]
concentration of 10 µM (0.2% DMSO). Luminescence was read by EnVision multimode plate reader (Perkin-Elmer). Assay conditions were consistent between manual and high-throughput assays [10 µM ATP, 50 mM Tris (pH 7.5), 20 mM MgCl2, 1 mM EDTA, 0.5 mM tris(2-carboxyethyl)phosphine (TCEP)]. The plates were then incubated for 50 min at room temperature before addition of Kinase-Glo reagent and further incubation in the dark for 10 minutes before reading luminescence. […]
were obtained to determine activity of compounds on the enzyme. […]

adult S. mansoni = test: Single-concentration (10 μM) treatment of adult worms, attachment and morphology; format: cell-based, Schistosoma mansoni; settings: in vitro culture
Procedure: (§3) DMSO). All selected compounds were obtained from commercial vendors (Medchemexpress, Selleck Chemicals, Sigma-Aldrich, ApexBio, Tocris, Santa Cruz Biotechnology, and Cayman Chemical Company) (Dataset S4) with […]
the activity of the desired compounds. Roughly 5 adult worm pairs were placed in 3mL Basch medium in a 12-well culture vessel, and incubated at 37° C, 5% CO2 for the length of the experiment. Compound was administered at D0, D1, and D2, media and drug refreshed every 24 hr. Worms were then allowed to remain in culture until D5, where a final assessment of worm attachment to tissue culture substate was made by light microscopy.
Observations on movement and morphology were also recorded. A negative control (0.1% DMSO) and positive control (PZQ; 10 µM in 0.1% DMSO) were included in each experiment, and each experiment was repeated in triplicate for validation. […]

H. sapiens p97 (P55072) = target: T1, H. sapiens p97 (P55072) (Homo sapiens, UniProt P55072); test: Kinase-Glo ATP consumption assay, recombinant H. sapiens p97; format: biochemical; settings: 100 μM to 1 nM
T1 construct: purified recombinant full-length (1-806aa) H; 6xHis (N); made in house; host or cells: E. coli BL21 (DE3)
T1 sequence (P55072 whole entry): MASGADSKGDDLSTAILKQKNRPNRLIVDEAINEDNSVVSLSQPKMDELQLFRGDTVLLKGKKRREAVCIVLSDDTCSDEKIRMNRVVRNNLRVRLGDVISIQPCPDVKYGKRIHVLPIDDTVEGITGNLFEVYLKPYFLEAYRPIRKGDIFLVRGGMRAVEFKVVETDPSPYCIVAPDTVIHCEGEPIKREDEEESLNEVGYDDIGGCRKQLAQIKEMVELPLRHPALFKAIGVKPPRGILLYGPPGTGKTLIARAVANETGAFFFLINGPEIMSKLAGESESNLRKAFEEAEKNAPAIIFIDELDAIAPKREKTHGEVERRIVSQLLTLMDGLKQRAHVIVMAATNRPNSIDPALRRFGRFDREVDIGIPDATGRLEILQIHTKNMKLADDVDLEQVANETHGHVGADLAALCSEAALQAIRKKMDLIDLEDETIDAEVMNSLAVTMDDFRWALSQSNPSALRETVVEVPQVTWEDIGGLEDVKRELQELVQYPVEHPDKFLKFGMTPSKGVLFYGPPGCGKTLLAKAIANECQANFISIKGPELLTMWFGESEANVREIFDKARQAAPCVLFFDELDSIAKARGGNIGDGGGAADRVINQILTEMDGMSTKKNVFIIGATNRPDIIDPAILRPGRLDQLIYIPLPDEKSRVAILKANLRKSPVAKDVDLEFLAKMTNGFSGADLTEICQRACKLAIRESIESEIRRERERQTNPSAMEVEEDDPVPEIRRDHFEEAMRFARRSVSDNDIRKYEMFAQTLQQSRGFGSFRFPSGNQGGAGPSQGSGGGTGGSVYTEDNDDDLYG

[3] = test system: K48 polyubiquitinated proteins in adult S. mansoni; test: Western blot of K48 polyubiquitinated proteins in lysate of drug-treated worms; format: cell-based, Schistosoma mansoni; settings: adult worm lysate after 48 h of treatment
Procedure: as §3
the activity of the desired compounds. Roughly 5 adult worm pairs were placed in 3mL Basch medium in a 12-well culture vessel, and incubated at 37° C, 5% CO2 for the length of the experiment. […]
For drug treatment studies, 10 male adult worms (single or paired with females) were supplemented with either 0.1% DMSO or inhibitor (0.1% DMSO final). For all experiments assessing on-target effects of potential parasite […]
After 48 hr, male parasites were separated […]
further processing. Male worm samples were homogenized with a pestle in 50 µL lysis buffer containing 2X […]
(Roche, cOmplete Mini, EDTA-free Tablets) and 10 mM DTT. The lysates were then sonicated on high for 5 min (30 sec on, 30 sec off) using a Bioruptor UCD-200. Lysates were centrifuged for 5 min at 10,000 g to remove […]
debris. Total protein was measured using the Detergent Compatible Bradford Assay (Pierce). 50 µg of protein samples denatured in SDS Sample buffer (95°C for 5 min) were separated on a Bio-Rad 4-20% TGX Stain-Free gel along with Precision Plus Protein Dual Color Standards (Bio-Rad) as a marker. Proteins were then transferred to a nitrocellulose membrane (Bio-Rad). The membrane was blocked in a 1:5 solution of Li-Cor Odyssey Blocking buffer in PBST for 1 hr before being immunoblotted overnight at 4°C with 1:500 K48-linkage Specific […]
(1:10,000) (Developmental Studies Hybridoma Bank, JLA20) diluted in a 1:5 solution of Li-Cor Odyssey Blocking buffer in PBST. The membrane was washed 3x in TBST and then incubated in 1:5 Li-Cor Odyssey […]
in TBST 3x before being imaged on a LiCor Odyssey Infrared Imager. […]

[4] = H. sapiens p97 IC50 versus S. mansoni p97 IC50
[5] = recombinant Hsp97, Kinase-Glo, NA = no notable effect on the enzyme at tested concentrations, >100 = IC50 predicted above 100 μM or maximal inhibition not achieved
[6] = recombinant full-length enzyme, Kinase-Glo, 100 μM to 1 nM
[7] = recombinant full-length enzyme, Kinase-Glo

Sequence of S. mansoni p97 (Smp_018240) (G4M0P7 entry or part of it): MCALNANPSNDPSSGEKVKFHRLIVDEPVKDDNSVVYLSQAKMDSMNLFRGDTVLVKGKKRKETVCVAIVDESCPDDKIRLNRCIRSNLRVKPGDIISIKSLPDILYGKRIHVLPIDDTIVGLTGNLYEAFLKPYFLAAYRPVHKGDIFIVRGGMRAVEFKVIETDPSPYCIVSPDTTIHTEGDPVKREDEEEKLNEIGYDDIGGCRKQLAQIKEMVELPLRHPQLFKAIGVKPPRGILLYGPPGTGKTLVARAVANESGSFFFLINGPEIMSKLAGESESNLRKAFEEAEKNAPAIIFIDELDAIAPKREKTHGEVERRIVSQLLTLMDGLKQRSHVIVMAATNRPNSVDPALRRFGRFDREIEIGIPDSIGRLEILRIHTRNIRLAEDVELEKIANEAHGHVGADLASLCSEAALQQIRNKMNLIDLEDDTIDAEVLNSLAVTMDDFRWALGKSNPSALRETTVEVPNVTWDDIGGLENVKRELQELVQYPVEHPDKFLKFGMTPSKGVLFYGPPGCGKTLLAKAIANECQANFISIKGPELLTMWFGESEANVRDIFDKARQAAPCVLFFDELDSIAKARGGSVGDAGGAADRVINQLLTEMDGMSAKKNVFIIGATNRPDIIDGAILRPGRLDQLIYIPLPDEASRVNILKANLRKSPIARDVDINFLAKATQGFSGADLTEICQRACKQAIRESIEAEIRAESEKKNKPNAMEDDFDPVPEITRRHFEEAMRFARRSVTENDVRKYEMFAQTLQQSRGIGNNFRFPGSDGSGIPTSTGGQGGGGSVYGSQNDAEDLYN

Row | Structure (SMILES) | IC50 [1] | Fold Selectivity (parasite enzyme over human enzyme) [1, 4] | Screen Inhibition (%) [2] | phenotype of adult worms after treatment (adult S. mansoni) | IC50 (H. sapiens p97 (P55072); [5]) | other results
1 | O=C(C#Cc1ccccc1)Nc1ccc2oc(-c3ccncc3)nc2c1 [Compound 242] | 1.4 ± 0.11 µM | 8.6 fold | 47% | led to death in adult parasites; also recorded: ultimately leading to their death | 12 ± 0.31 µM | –
2 | c1ccc(CNc2nc(NCc3ccccc3)c3ccccc3n2)cc1 [DbeQ, reference compound] | – | – | – | activity on the worms | – | IC50 [1, 6]: 12 µM; accumulation of K48 polyubiquitinated proteins by western blot [3]: did not observe the same accumulation; IC50 (H. sapiens p97 (P55072); [7]): 0.91 ± 0.39 µM
3 | O=C(C#Cc1cccnc1)Nc1ccc2oc(-c3ccccn3)nc2c1 [Compound 738] | 0.42 ± 0.057 µM | 1.9 fold | – | death of the parasites | 0.78 ± 0.14 µM | –
4 | CC1(C)C(N(O)C(=O)Nc2ccc(Cl)cc2)N(c2ccc(Cl)cc2)C(=O)N1CC(=O)N/N=C/C=C/c1ccc([N+](=O)[O-])o1 (stereo not drawn) [Eeyarestatin I, reference compound] | – | – | – | effective | – | accumulation of K48 polyubiquitinated proteins by western blot [3]: did not see significant increases in K48 abundance
5 | O=C(C#Cc1ccccc1)Nc1ccc2oc(-c3ccccc3)nc2c1 [Compound 245] | 3.8 ± 0.19 µM | – | 36% | did cause detachment, it did not lead to parasite death | – | –
6 | COc1cccc2c(NCc3ccccc3)nc(-n3c(N)nc4ccccc43)nc12 [ML240, reference compound] | – | – | – | killed parasites quickly | – | Fold Selectivity (parasite enzyme over human enzyme) [1]: ~ fivefold; IC50 [1, 6]: 0.066 ± 0.0097 µM; accumulation of K48 polyubiquitinated proteins by western blot [3]: did not observe the same accumulation; IC50 (H. sapiens p97 (P55072); [7]): 0.33 ± 0.061 µM
7 | O=C(CCc1ccccc1)Nc1ccc2oc(-c3ccccn3)nc2c1 [Compound 326] | – | – | 2.2% | – | – | inhibition of S. mansoni p97 function in the screen [2]: inactive
8 | O=C(C#Cc1ccncc1)Nc1ccc2oc(-c3ccccn3)nc2c1 [Compound 739] | – | 2.1 fold | – | death of the parasites | 0.32 ± 0.026 µM | IC50 [1, 6]: 0.15 µM; accumulation of K48 polyubiquitinated proteins by western blot [3]: on-target activity by western blot
9 | Cc1cccc(-c2nc3cc(NC(=O)C#Cc4ccncc4)ccc3o2)n1 [Compound 807] | 0.67 ± 0.17 µM | 0.70 fold | – | – | 0.49 ± 0.057 µM | –
10 | O=C(C=Cc1ccccc1)Nc1ccc2oc(-c3ccccc3)nc2c1 [Compound 135] | – | – | 1.1% | – | – | inhibition of S. mansoni p97 function in the screen [2]: inactive
11 | O=C(C#Cc1ccc(Cl)cc1)Nc1ccc2oc(-c3ccccn3)nc2c1 [Compound 736] | 5.9 ± 1.3 µM | 1.1 fold | – | decreased activity on the worms | 6.7 ± 0.055 µM | –
12 | O=C(/C=C\c1ccccc1)Nc1ccc2oc(-c3ccccc3)nc2c1 [Compound 324] | – | – | 1.1% | – | – | inhibition of S. mansoni p97 function in the screen [2]: inactive
13 | O=C(C#Cc1ccccc1)Nc1ccc2oc(-c3ccccn3)nc2c1 [Compound 243] | 2.1 ± 0.75 µM | – | 46% | led to death in adult parasites; also recorded: ultimately leading to their death | 20 ± 0.54 µM | Fold Selectivity (parasite enzyme over human enzyme) [1]: 9.5 fold
14 | COc1ccc(C#CC(=O)Nc2ccc3oc(-c4ccccn4)nc3c2)cc1 [Compound 734] | 48 ± 2.6 µM | 1.7 fold | – | decreased activity on the worms | 83 ± 6.5 µM | –
15 | O=C(C#Cc1cccc(Cl)c1)Nc1ccc2oc(-c3ccccn3)nc2c1 [Compound 735] | 11 ± 0.47 µM | 0.70 fold | – | still active on worms | 7.3 ± 0.66 µM | –
16 | Cc1cccnc1-c1nc2cc(NC(=O)C#Cc3ccncc3)ccc2o1 [Compound 804] | 0.19 ± 0.063 µM | 0.70 fold | – | – | 0.14 ± 0.062 µM | –
17 | Cc1ccnc(-c2nc3cc(NC(=O)C#Cc4ccncc4)ccc3o2)c1 [Compound 805] | 0.17 ± 0.092 µM | 0.80 fold | – | – | 0.14 ± 0.078 µM | –
18 | O=C(C#Cc1ccccc1)Nc1ccc2oc(-c3cccnc3)nc2c1 [Compound 244] | – | – | 16% | did not have any adverse effects on worm health and survival | – | –
19 | O=C(C#CC1CC1)Nc1ccc2oc(-c3ccccn3)nc2c1 [Compound 732] | – | – | – | still active on worms | – | –
20 | O=C(C#Cc1ccccn1)Nc1ccc2oc(-c3ccccn3)nc2c1 [Compound 737] | 3 ± 0.41 µM | 4.3 fold | – | decreased activity on the worms | 13 ± 2.2 µM | –
21 | CC(C)N1CCN(CCNC2CCN(c3cccc(-c4cc5cc(F)ccc5[nH]4)c3)CC2)CC1 [UPCDC-30245, reference compound] | – | – | – | effective | – | selectivity between schistosome and human p97 [1]: selective in favor of the human enzyme; IC50 [1, 6]: 4.1 µM; accumulation of K48 polyubiquitinated proteins by western blot [3]: did not see significant increases in K48 abundance; IC50 (H. sapiens p97 (P55072); [7]): 0.97 ± 0.067 µM
22 | Cc1ccc(-c2nc3cc(NC(=O)C#Cc4ccncc4)ccc3o2)nc1 [Compound 806] | 0.47 ± 0.17 µM | 1.1 fold | – | – | 0.51 ± 0.16 µM | –
